For assay [1], the system named is Human subcutaneous pre-adipocytes. Description: Lipogenesis Assay (AdipoRed staining). In kind it is cell-based. The conditions noted are these: AdipoRed fluorescence, NI = no inhibition at concentration less than/equal to 1 mM. The method, then:
Lipogenesis is the process by which acetyl-CoA is converted to fatty acid. Through lipogenesis and subsequent triglyceride synthesis, energy can be stored in the form of adipose tissue (i.e. fats). To determine what effect, if any, activating compounds (shown in TABLE 1) had on lipogenesis, the protocol listed below was used.
To determine whether the activating compounds (shown in TABLE 1) impacted the formation of white adipocytes from pre-adipocytes, a lipogenesis assay was performed. The cells utilized in the protocol were cryo-preserved Human subcutaneous pre-adipocytes superlot (Zen-Bio, Inc., Research Triangle Park, N.C., Cat # SP-F-SL). The growth media used was PM-1 (Zen-Bio, Inc., Research Triangle Park, N.C., cat # PM-1) plus 5 ng/mL Epidermal Growth Factor (EGF). The PM-1+5 ng/mL EGF was prepared by adding 12.5 uL of 200 ug/mL EGF stock to 500 mL PM-1. The differentiation media used was DM-2 (Zen-Bio, Inc., Research Triangle Park, N.C., cat # DM-2). The adipocyte maintenance media used was AM-1 (Zen-Bio, Inc., Research Triangle Park, N.C., cat # AM-1).
First, the human subcutaneous pre-adipocyte cells were thawed in a 37° C. water bath. Next, the thawed pre-adipocyte cells were added to 9 mL of growth medium (PM-1) at 20° C. in a 15 mL polypropylene tube (Bioexpress, Corning, Corning, N.Y.). The tube was centrifuged at 280×g (˜1100 rpm) at 20° C. for 5 min. After 5 min, the supernatant was removed and the accumulated solids were re-suspended in 2 mL of PM-1 using trituration. The suspension of cells was counted under 100× magnification using a Cyto C-Chip hemacytometer (Incyto, Seoul, South Korea, cat # DHC-N01-5). In order to proceed, 15-50 cells per 1×1 mm square in hemacytometer was needed. If, the number of cells per square was not met, 6.7×10^5 (670,000) cells per T75 flask (Bioexpress, Corning, Corning, N.Y.) were added to each square and the suspension was diluted to 20 mL with PM-1. Every other day, new media was added to replace media removed due to metabolism by the cells. The cells were re-counted as described previously. Cells were grown to 80-90% confluence, which took approximately 4-5 days. 80-90% confluence is determined by visual inspection of the area of the flask occupied by the cells. When 80-90% of the flask area has been occupied, cells are at 80-90% confluence. Cell colonies were then split 1:6 by harvesting from a single flask and equally dividing the harvested cells into six flasks. Colonies were not allowed to exceed 3 passages and were not grown to complete confluence. The pre-adipocytes were grown until they contact with other cells in the flask to aid differentiation into white or brown adipocytes.
After the pre-adipocytes were sufficiently grown to 90% confluence, the cells were ready for differentiation and treatment with an activating compound. Cells were washed with 3 mL of PBS and detached using 3 mL of Trypsin EDTA. The cells were incubated at 37° C. for 5 minutes. Next, the cells were centrifuged at 280×g at 20° C. for 5 minutes. The supernatant was discarded and the resulting pellet was re-suspended in 10 mL of PM-1 using trituration. Cells were counted at 100× magnification and the cells were diluted to 86,667 cells/mL (˜13,000 cells/150 μL) by adding the necessary amount of PM-1 to achieve the desired concentration. Upon addition of PM-1, samples were swirled by hand to evenly disperse the cells prior to plating.
Once confluence is reached, 150 μL of differentiation media (DM-2) was added (DAY 0). Samples were incubated at 37° C. for 6 days. On DAY 6, 90 μL of media was removed from each sample via aspiration, without touching the bottom of the well. Next, 140 μL of adipocyte maintenance medium (AM-1) was added. The AM-1 ran down the side of well. On DAY 6, activating compounds were added (2 μL of 10 mM activating compound) to give a final concentration of 100 μM of activating compounds. […]

Another assay addresses human TRPM8. Nature of the assay: TRPM8 Protocol-FLIPR Assay (intracellular Ca2+). The format is cell-based. The conditions noted are these: HEK-293 cells stably transfected with human TRPM8, Fluo-4 AM, relative to benchmark agonist WS-5. The method, then:
To determine whether TRPM8 is activated, the intracellular calcium ion (Ca^2+) level was measured from transfected cells with the TRPM8 receptor sequence (SEQ ID NO: 1). HEK-293 (human embryonic kidney) cells stably transfected with human TRPM8 were grown in 15 mL growth medium (high glucose DMEM (Dulbecco's Modification of Eagle's Medium) supplemented with 10% FBS (fetal bovine serum), 100 μg/mL penicillin/streptomycin, 5 μg/mL blasticindin, and 100 μg/mL zeocin) in a 75 cm^2 flask for 3 days at 37° C. in a mammalian cell culture incubator (Forma Scientific Model 3110, Marietta, Ohio) set at 5% CO2. Cells were detached with addition of 2 mL of trypsin-EDTA buffer (GIBCO® 25200, Invitrogen, Grand Island, N.Y.) for about 2-3 min. Trypsin was inactivated by addition of 8 mL growth medium. Cells were transferred to a 50 mL tube and centrifuged at 850 rpm for 3 minutes to remove medium. After centrifugation, a pellet of cells was formed in the bottom of the tube separating them from the supernatant solution. The supernatant was discarded and the cell pellet was suspended in 1 mL of fresh growth medium to which 5 μL (12.5 μg) of Fluo-4 AM (Molecular Probes, Inc., Eugene, Oreg.) calcium indicator was added and incubated for 30 min with gentle shaking. Fluo-4 AM is a fluorescent dye used for quantifying cellular Ca^2+ concentrations in the 100 nM to 1 μM range. At the end of 30 minutes, 45 mL of assay buffer (1×HBSS (Hank's Balanced Salt Solution), 20 mM HEPES (4-(2-Hydroxyethyl)-1-piperazineethanesulfonic acid)) was added to wash cells and the resulting mixture was then centrifuged at 850 rpm for 3 minutes at 20° C. to remove excess buffer and Fluo-4 AM calcium indicator.
The pelleted cells were re-suspended in 10 mL assay buffer and 90 μL aliquots (˜50,000 cells) per well delivered to a 96-well assay plate containing 10 μL of test compounds (1 mM in assay buffer, final concentration 100 μM) or buffer control and incubated at room temperature for 30 minutes. After 30 minutes, a plate (Falcon 353219, Corning Corning N.Y.) was placed into a fluorometric imaging plate reader (FLIPR384 from Molecular Devices, Sunnyvale, Calif.) and basal fluorescence recorded (excitation wave length 488 nm and emission wave length 510 nm). Then 20 μL of 100 mM of TRPM8 agonist WS5 coolant in the assay buffer was added and fluorescence recorded. For determining the direct effect of test compounds on TRPM8, fluorescence was measured immediately after addition of each compound (TABLE 1). Additional discussion of the FLIPR method can be found in Smart et al., Characterization using FLIPR of human vanilloid VR1 receptor pharmacology, European Journal of Pharmacology 417, 51-58 (2001) and Liu et al., Development and validation of a platelet calcium flux assay using a fluorescent imaging plate reader, Analytical Biochemistry 357, 216-224 (2006).
The magnitude of the fluorescence of the active-treated cells was compared to the magnitude of the fluorescence from a benchmark agonist (WS-5), as described above. The percentage of fluorescence as a function of active dose was plotted and a sigmoidal curve was generated. Curve fitting from this dose-response curve yielded the value for TRPM8 IC50 in nM.
TRPM8 activation was determined by measuring intracellular calcium ion (Ca^2+) level from transfected cells with the TRPM8 receptor gene, as described in EXAMPLE 1, the results of which are shown in TABLE 1. IC50 values are provided in column 3 of TABLE 1, which measured the concentration of activating compound needed to reduce intracellular [Ca^2+] by 50%. […]

A further assay deals with adipocytes. Description: Real Time PCR analysis of adipocytes, in vitro. The format is cell-based, human. The method, then: For Real Time PCR analysis of adipocytes, cells from cultures grown in 24 well plates were collected. RNA was isolated using RNeasy Kit (Cat 74104, Qiagen, Germantown, Md.) using manufacturer's protocol. RNA was quantitated using the Nanodrop 1000 (Thermofisher, Waltham, Mass.). cDNA formation was carried out using PowerUp SYBR™ Green Master Mix and real time PCR carried out on QuantStudio 6 machine (ThermoFisher, Waltham, Mass.) per manufacturer protocol. ΔΔCT analysis was done using the Expression Suite software (ThermoFisher) purchased with the instrument.
TABLE 2 used Real Time PCR to determine which proteins were expressed in adipocytes upon treatment with activating compounds. […] Real Time PCR values were relative to a control sample that was not treated with any activating compounds. […] In WS-5 and Menthol, no Real Time PCR value was over 2.0, which indicated only slight changes in mRNA expression.

[2] abbreviates: Real Time PCR, relative to untreated control = 1.

On to `CC(C)[C@@H]1CC[C@@H](C)C[C@H]1C(=O)NCC(NC(=O)[C@@H](C)N)c1ccccc1` (stereo partly drawn) [Comparative Example 1], for which inhibition in assay [1] (Homo sapiens) was half-maximal at 800 µM (IC50).
Regarding `CC(C)[C@@H]1CC[C@@H](C)C[C@H]1C(=O)NCC(NC(=O)[C@H](C)N)c1ccccc1` (stereo partly drawn) [Comparative Example 2], the IC50 on human TRPM8 was 0.01 to 0.012 µM; in assay [1] it was 900 µM; in assay [1] (Homo sapiens) it was 800 µM.
Compound `CC(C)[C@@H]1CC[C@@H](C)C[C@H]1C(=O)NC[C@@H](NC(=O)[C@@H](C)N)c1ccccc1` [Formula IV] yielded an IC50 in assay [1] (Homo sapiens) of 800 µM. In addition, in the assay with adipocytes (setting [2]), the “Relative Expression of mRNA in Adipocytes: 18S” value is reported as 0.95, the “Relative Expression of mRNA in Adipocytes: ACADM” value is on record as 1.4, the “Relative Expression of mRNA in Adipocytes: CPT1A” value was 1.7 and the “Relative Expression of mRNA in Adipocytes: FASN” value stood at 1.35. Besides, in the assay on adipocytes (setting [2]), the “Relative Expression of mRNA in Adipocytes: GAPDH” value came out at 1, the “Relative Expression of mRNA in Adipocytes: PPARGC1A” value is given as 1.1, the “Relative Expression of mRNA in Adipocytes: PRDM16” value is reported as 0.7 and the “Relative Expression of mRNA in Adipocytes: UCP-1” value is given as 1.8. For the same compound, the “Real Time PCR value (any of the proteins of TABLE 2)” value in the assay on adipocytes (upper bound over all proteins, relative to untreated control) is reported as not above 2.
For the compound `CC(C)[C@@H]1CC[C@@H](C)C[C@H]1C(=O)OC[C@@H](NC(=O)[C@@H](C)N)c1ccccc1` [Formula VI], the IC50 on human TRPM8 worked out at 0.008 µM; in assay [1] (Homo sapiens), 40 µM.
With `CC(C)[C@@H]1CC[C@@H](C)C[C@H]1C(=O)OC[C@@H](NC(=O)[C@H](C)N)c1ccccc1` [Formula V], the IC50 was 0.34 µM at human TRPM8 and 80 µM in assay [1] (Homo sapiens).

Values taken from patent publication US20200138764A1, “METHODS AND DEVICES FOR ACTIVATING ADIPOSE TISSUE” (The Procter & Gamble Company, priority 2018, published 2020).
